# Data as given in patent US5292737A, “N,N'-bis(sulfonamido)-2-amino-4-iminonaphthalen-1-ones and N,N'-bis(amido)-2-amino-4-iminonaphthalen-1-ones” (Sphinx Pharmaceuticals Corporation, priority 1992, dated 1994).
# Read-outs that look alike come from different tables or passages of the source.
# Legend:
# Format in all cases: biochemical
# PKC isoenzyme γ = target: T1, PKC isoenzyme γ (Homo sapiens, UniProt P05129); experiment: Protein kinase C inhibition assay, PKC isoenzyme γ
# T1 construct: made in house; host or cells: baculovirus-insect cell expression system
# Procedure: (§1) A protein kinase C (PKC) assay is designed to duplicate the in vivo conditions required for protein kinase C function. Therefore, pH, salt and cofactor concentrations are similar to physiologic levels. Either lysine rich histone H1 (H1) or Myelin basic protein (Mbp) are used in the assay as the phosphorylation acceptor-protein because they are readily available and serve as good substrates for protein kinase C. Enzyme was prepared from baculovirus-insect cell expression systems.
# (§2) In the screening assay, phosphatidylserine (PS) and DAG were co-sonicated to form unilamellar and multilamellar vesicles. The concentration of lipids in the assay were suboptimal to maximize the detection potential of the assay for inhibitors or activators. Potential effector compounds were added to the assay in dimethylsulfoxide at four concentrations to give final inhibitor concentrations of 1, 10, 50, and 150 μM, respectively.
# (§3) The assay was started with the addition of enzyme and stopped after 10 min by the addition of 25% trichloroacetic acid (TCA) and 1.0 mg/ml bovine serum albumin (BSA). The radioactive histone product was retained and washed on glass fiber filters that allow the unreacted P-ATP to pass through. The amount of phosphorylation was determined by measuring radioactivity with a scintillation counter. Controls were included in every assay to measure background activity in the absence of enzyme, activity in the absence of lipids, and the maximum enzyme activity with saturating levels of the activator lipids.
# (§4) Results of the protein kinase C assay are shown in Table 4 in columns labeled α, βII, γ, δ, ε, and .zeta. which represent various PKC isoenzymes. Results are show as IC50, which is the concentration of test compound needed to inhibit 50% of the protein kinase C activity in controls.
# PKC isoenzyme ε = target: T2, PKC isoenzyme ε (Homo sapiens, UniProt Q02156); experiment: Protein kinase C inhibition assay, PKC isoenzyme ε
# T2 construct: made in house; host or cells: baculovirus-insect cell expression system
# T2 sequence (Q02156 1-737): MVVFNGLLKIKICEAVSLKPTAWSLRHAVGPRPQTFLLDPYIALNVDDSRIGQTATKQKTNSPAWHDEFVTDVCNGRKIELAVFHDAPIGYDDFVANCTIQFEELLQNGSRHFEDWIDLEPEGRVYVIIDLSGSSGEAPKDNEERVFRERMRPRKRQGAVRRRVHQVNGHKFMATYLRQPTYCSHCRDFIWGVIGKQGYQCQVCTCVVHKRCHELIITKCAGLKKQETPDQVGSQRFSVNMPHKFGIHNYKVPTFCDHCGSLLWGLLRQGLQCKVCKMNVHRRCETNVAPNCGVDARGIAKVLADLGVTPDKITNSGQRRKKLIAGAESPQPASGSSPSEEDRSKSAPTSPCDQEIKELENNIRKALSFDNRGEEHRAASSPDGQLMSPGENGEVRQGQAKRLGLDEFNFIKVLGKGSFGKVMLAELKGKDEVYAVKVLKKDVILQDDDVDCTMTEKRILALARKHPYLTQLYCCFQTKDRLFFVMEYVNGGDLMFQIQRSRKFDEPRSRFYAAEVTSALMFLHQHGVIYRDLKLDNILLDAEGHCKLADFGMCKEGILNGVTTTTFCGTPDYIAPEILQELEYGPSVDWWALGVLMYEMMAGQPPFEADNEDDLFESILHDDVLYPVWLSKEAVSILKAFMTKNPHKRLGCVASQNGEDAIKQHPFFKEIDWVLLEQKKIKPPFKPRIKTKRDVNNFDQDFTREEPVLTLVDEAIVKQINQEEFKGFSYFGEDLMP
# Procedure: as §1, §2, §3, §4
# PKC isoenzyme ζ = target: T3, PKC isoenzyme ζ (Homo sapiens, UniProt Q05513); experiment: Protein kinase C inhibition assay, PKC isoenzyme ζ
# T3 construct: made in house; host or cells: baculovirus-insect cell expression system
# T3 sequence (Q05513 1-592): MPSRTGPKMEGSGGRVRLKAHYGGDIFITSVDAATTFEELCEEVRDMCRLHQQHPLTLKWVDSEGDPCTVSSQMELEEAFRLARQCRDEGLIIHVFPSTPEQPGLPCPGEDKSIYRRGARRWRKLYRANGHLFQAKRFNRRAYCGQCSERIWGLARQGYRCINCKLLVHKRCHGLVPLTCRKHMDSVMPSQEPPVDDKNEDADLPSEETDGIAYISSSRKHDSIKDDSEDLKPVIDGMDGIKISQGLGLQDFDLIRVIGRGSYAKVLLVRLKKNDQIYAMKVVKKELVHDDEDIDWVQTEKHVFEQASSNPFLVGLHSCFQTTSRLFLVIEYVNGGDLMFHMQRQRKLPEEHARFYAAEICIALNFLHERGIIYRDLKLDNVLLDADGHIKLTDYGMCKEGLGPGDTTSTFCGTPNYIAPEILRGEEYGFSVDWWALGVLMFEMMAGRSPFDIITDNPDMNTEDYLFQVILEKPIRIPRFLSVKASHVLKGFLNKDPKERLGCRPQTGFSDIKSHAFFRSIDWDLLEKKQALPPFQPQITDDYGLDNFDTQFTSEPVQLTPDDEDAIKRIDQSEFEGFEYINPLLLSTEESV
# Procedure: as §1, §2, §3, §4
# [1] = target: cAMP dependent protein kinase (PKA); experiment: cAMP Dependent Protein Kinase (PKA) Assay; conditions: for IC50: catalytic subunit of PKA; for effect on PKA activity: result in words
# Procedure: Compounds found to be inhibitors of protein kinase C were tested for inhibitory activity against cAMP dependent protein kinase (PKA). This enzyme, like protein kinase C, plays an important role in cell-cell communication and is activated by a second messenger, cAMP. Secondary screening against PKA is useful for ascertaining the selectivity of the compounds of the invention.
# The catalytic subunit of PKA (Sigma Chemical Company, St. Louis, Mo.) was mixed with buffer before addition of the inhibitor in dimethylsulfoxide (DMSO). Potential inhibitor compounds were added to the assay in dimethylsulfoxide at two concentrations to give final inhibitor concentrations of 30 and 150 μM, respectively. The assay was started by the addition of ^32 P-ATP and the reaction was allowed to proceed for 10 min before stopping with 25% trichloroacetic acid (TCA) and 1.0 mg/ml bovine serum albumin (BSA). Phosphorylated protein was then isolated by filtration and the radioactivity was counted by a beta scintillation counter.
IC50 [1] [µM],effect on PKA activity [1],IC50 (PKC isoenzyme γ; read-out: IC50 PKC γ) [µM],IC50 (PKC isoenzyme ε; read-out: IC50 PKC ε) [µM],IC50 (PKC isoenzyme ζ; read-out: IC50 PKC .zeta.) [µM],Compound,IC50 (PKC isoenzyme γ; IC50 PKC γ) [µM],IC50 (PKC isoenzyme ε; IC50 PKC ε) [µM],IC50 (PKC isoenzyme ζ; IC50 PKC .zeta.) [µM]
> 150,did not effect on PKA activity,16,> 150,> 150,Cc1cc(C)nc(NS(=O)(=O)c2cccc(N=C3C=C(Nc4cccc(S(=O)(=O)Nc5cc(C)cc(C)n5)c4)C(=O)c4ccccc43)c2)c1 [Compound 3ae],–,–,–
62,–,40,111,> 150,COc1cc(NS(=O)(=O)c2ccc(N=C3C=C(Nc4ccc(S(=O)(=O)Nc5cc(OC)cc(OC)c5)cc4)C(=O)c4ccccc43)cc2)cc(OC)c1 [Compound 3af],–,–,–
> 150,did not effect on PKA activity,20,8,28,Cc1cc(C)nc(NS(=O)(=O)c2cc(N=C3C=C(Nc4ccc(C)c(S(=O)(=O)Nc5cc(C)cc(C)n5)c4)C(=O)c4ccccc43)ccc2C)c1 [Compound 3ag],–,–,–
–,–,70,> 150,> 150,Cc1cc(C)nc(NC(=O)c2ccc(N=C3C=C(Nc4ccc(C(=O)Nc5cc(C)cc(C)n5)cc4)C(=O)c4ccccc43)cc2)c1 [Compound 3ah],–,–,–
> 150,did not effect on PKA activity,9,> 105,> 150,Cc1cc(C)nc(NC(=O)c2ccc(N=C3C=C(Nc4ccc(C(=O)Nc5nc(C)cc(C)n5)cc4)C(=O)c4ccccc43)cc2)n1 [Compound 3ai],–,–,–
> 150,did not effect on PKA activity,25,143,–,Cc1noc(NS(=O)(=O)c2ccc(N=C3C=C(Nc4ccc(S(=O)(=O)Nc5onc(C)c5C)cc4)C(=O)c4ccccc43)cc2)c1C [Compound 3b],–,–,–
> 150,did not effect on PKA activity,21,> 150,–,Cc1cc(C)nc(NS(=O)(=O)c2ccc(N=C3C=C(Nc4ccc(S(=O)(=O)Nc5nc(C)cc(C)n5)cc4)C(=O)c4ccccc43)cc2)n1 [Compound 3c],–,–,–
> 150,did not effect on PKA activity,36,> 150,–,Cc1cc(NS(=O)(=O)c2ccc(N=C3C=C(Nc4ccc(S(=O)(=O)Nc5cc(C)nc(C)n5)cc4)C(=O)c4ccccc43)cc2)nc(C)n1 [Compound 3d],–,–,–
55,–,22,> 150,–,Cc1nnc(NS(=O)(=O)c2ccc(N=C3C=C(Nc4ccc(S(=O)(=O)Nc5nnc(C)s5)cc4)C(=O)c4ccccc43)cc2)s1 [Compound 3e],–,–,–
48,–,29,> 150,–,Cc1ccnc(NS(=O)(=O)c2ccc(N=C3C=C(Nc4ccc(S(=O)(=O)Nc5nccc(C)n5)cc4)C(=O)c4ccccc43)cc2)n1 [Compound 3f],–,–,–
> 150,did not effect on PKA activity,14,> 150,–,COc1cc(NS(=O)(=O)c2ccc(N=C3C=C(Nc4ccc(S(=O)(=O)Nc5cc(OC)nc(OC)n5)cc4)C(=O)c4ccccc43)cc2)nc(OC)n1 [Compound 3g],–,–,–
> 150,did not effect on PKA activity,55,> 150,–,COc1cnc(NS(=O)(=O)c2ccc(N=C3C=C(Nc4ccc(S(=O)(=O)Nc5ncc(OC)cn5)cc4)C(=O)c4ccccc43)cc2)nc1 [Compound 3h],–,–,–
157,–,–,145,–,Cc1cc(NS(=O)(=O)c2ccc(N=C3C=C(Nc4ccc(S(=O)(=O)Nc5cc(C)on5)cc4)C(=O)c4ccccc43)cc2)no1 [Compound 6a],–,–,–
–,–,60,> 150,–,COc1cc(NS(=O)(=O)c2ccc(N=C3C=C(Nc4ccc(S(=O)(=O)Nc5cc(OC)cc(OC)c5)cc4)C(=O)c4ccccc43)cc2)cc(OC)c1 [Compound 6af],–,–,–
> 150,did not effect on PKA activity,24,–,–,Cc1cc(NS(=O)(=O)c2ccc(N=C3C=C(Nc4ccc(S(=O)(=O)Nc5cc(C)nc(C)n5)cc4)C(=O)c4ccccc43)cc2)nc(C)n1 [Compound 6d],–,–,–
45,–,12,–,20,Cc1nnc(NS(=O)(=O)c2ccc(N=C3C=C(Nc4ccc(S(=O)(=O)Nc5nnc(C)s5)cc4)C(=O)c4ccccc43)cc2)s1 [Compound 6e],–,–,–
46,–,18,–,35,Cc1ccnc(NS(=O)(=O)c2ccc(N=C3C=C(Nc4ccc(S(=O)(=O)Nc5nccc(C)n5)cc4)C(=O)c4ccccc43)cc2)n1 [Compound 6f],–,–,–
47,–,20,–,28,COc1cc(NS(=O)(=O)c2ccc(N=C3C=C(Nc4ccc(S(=O)(=O)Nc5cc(OC)nc(OC)n5)cc4)C(=O)c4ccccc43)cc2)nc(OC)n1 [Compound 6g],–,–,–
> 150,did not effect on PKA activity,41,–,47,COc1cnc(NS(=O)(=O)c2ccc(N=C3C=C(Nc4ccc(S(=O)(=O)Nc5ncc(OC)cn5)cc4)C(=O)c4ccccc43)cc2)nc1 [Compound 6h],–,–,–
> 150,did not effect on PKA activity,10,–,–,O=C1C(Nc2ccc(S(=O)(=O)Nc3ccccn3)cc2)=CC(=Nc2ccc(S(=O)(=O)Nc3ccccn3)cc2)c2ccccc21 [Compound 6i],–,–,–
> 150,did not effect on PKA activity,30,–,49,COc1ccc(NS(=O)(=O)c2ccc(N=C3C=C(Nc4ccc(S(=O)(=O)Nc5ccc(OC)nn5)cc4)C(=O)c4ccccc43)cc2)nn1 [Compound 6j],–,–,–
> 150,did not effect on PKA activity,44,149,–,O=C1C(Nc2ccc(S(=O)(=O)NCc3ccccn3)cc2)=CC(=Nc2ccc(S(=O)(=O)NCc3ccccn3)cc2)c2ccccc21 [Compound 6n],–,–,–

Compound,IC50 [1] [µM],effect on PKA activity [1],IC50 (PKC isoenzyme γ; read-out: IC50 PKC γ) [µM],IC50 (PKC isoenzyme ε; read-out: IC50 PKC ε) [µM],IC50 (PKC isoenzyme ζ; read-out: IC50 PKC .zeta.) [µM],IC50 (PKC isoenzyme γ; IC50 PKC γ) [µM],IC50 (PKC isoenzyme ε; IC50 PKC ε) [µM],IC50 (PKC isoenzyme ζ; IC50 PKC .zeta.) [µM]
O=C1C(Nc2ccc(S(=O)(=O)NCCNc3ccc([N+](=O)[O-])cn3)cc2)=CC(=Nc2ccc(S(=O)(=O)NCCNc3ccc([N+](=O)[O-])cn3)cc2)c2ccccc21 [Compound 3ac],> 150,did not effect on PKA activity,–,–,–,22,> 150,> 150
